Values of other authors as cited in patent US11712429B2, “Low eructation composition and methods for treating and/or preventing cardiovascular disease in a subject with fish allergy/hypersensitivity” (Amarin Pharmaceuticals Ireland Limited, priority 2010, dated 2023).

System: subjects with AAMI
Conditions: 50 mg, cited from earlier work

In the case of CN[C@@H](C)C/C=C/c1cncc(OC(C)C)c1 [Ispronicline], the “Power of Attention, mean” value (Day 21, SD=61.22, placebo mean=28.25) is given as -32.54 ms and the “benefit to Power of Attention (vs placebo)” value (Day 21 of repeated dosing, subjects with AAMI) is given as 61 ms.
